Experimental data: ChEMBL document CHEMBL1150483, “4-oxygenated retinoids: unexpected chemopreventive potential for analogues originally synthesized as affinity labels” (1992)

What was measured:
Mus musculus [1] = species on record: Mus musculus; assay: Ability to inhibit tumor promoter-induced ornithine decarboxylase activity in mouse skin using 1.7 nM of protein; format: functional
Mus musculus [2] = species on record: Mus musculus; assay: Ability to inhibit tumor promoter-induced ornithine decarboxylase activity in mouse skin using 17 nM of protein; format: functional

Row | SMILES | ODC Activity (Mus musculus [1]) | ODC Activity (Mus musculus [2])
1 | C=CC(=O)OC1CCC(C)(C)C(/C=C/C(C)=C/C=C/C(C)=C/C(=O)O)=C1C (stereo unspecified) | 3.5 (nM of CO2) 30min-1 (mg of protein)-1 | 2.4 (nM of CO2) 30min-1 (mg of protein)-1
2 | CC1=C(/C=C/C(C)=C/C=C/C(C)=C/C(=O)O)C(C)(C)CCC1OC(=O)CBr (stereo unspecified) | 2.3 (nM of CO2) 30min-1 (mg of protein)-1 | 2.5 (nM of CO2) 30min-1 (mg of protein)-1
3 | CC1=C(/C=C/C(C)=C/C=C/C(C)=C/C(=O)O)C(C)(C)CCC1 [TRETINOIN] | 2 (nM of CO2) 30min-1 (mg of protein)-1 | 1.9 (nM of CO2) 30min-1 (mg of protein)-1
